According to patent US12281149B2, “Modulators of G-protein coupled receptors” (priority 2021, dated 2025):
Where two headings read alike, the source gives them in different places. *1 amine or outer side, *2 acyl side, *3 side chain or, on linkers, in order; H or OH if unused. Where a SMILES comes first, the peptide text is derived from it. Side-chain parts run from the residue outwards. [ ]: non-standard residue; d: D form. The star is where a group is joined. Isobutyryl(2-(3-CN-5-F-Ph)) = CC(C)(C(=O)*)c1cc(F)cc(C#N)c1; C20 diacid = O=C(O)CCCCCCCCCCCCCCCCCCC(=O)*; γGlu = O=C(O)[C@H](CCC(=O)[*:2])N[*:1]; X54 = Cc1cn(C(C)(C)C(=O)*)nc1C(F)(F)F; X21 = O=C(C(CN[*:1])C(F)(F)F)[*:2]; NH(4-Cl-phenyl) = Clc1ccc(N*)cc1; X82 = CC(C)(C(=O)*)n1cc(N)cn1; AEEA = NCCOCCOCC(=O)O; Aib = CC(C)(N)C(=O)O; CO = O=C([*:1])[*:2]; GABA = NCCCC(=O)O; βAla = NCCC(=O)O

Columns and labels:
Assay type in all cases: cell-based
GIP receptor [1] = biological target: T1, GIP receptor (Homo sapiens, UniProt P48546); test: PathHunter β-arrestin assay, GIP receptor; set-up: host or cells: PathHunter CHO-K1 GIPR β-Arrestin Cell Line
T1 sequence (P48546 22-466): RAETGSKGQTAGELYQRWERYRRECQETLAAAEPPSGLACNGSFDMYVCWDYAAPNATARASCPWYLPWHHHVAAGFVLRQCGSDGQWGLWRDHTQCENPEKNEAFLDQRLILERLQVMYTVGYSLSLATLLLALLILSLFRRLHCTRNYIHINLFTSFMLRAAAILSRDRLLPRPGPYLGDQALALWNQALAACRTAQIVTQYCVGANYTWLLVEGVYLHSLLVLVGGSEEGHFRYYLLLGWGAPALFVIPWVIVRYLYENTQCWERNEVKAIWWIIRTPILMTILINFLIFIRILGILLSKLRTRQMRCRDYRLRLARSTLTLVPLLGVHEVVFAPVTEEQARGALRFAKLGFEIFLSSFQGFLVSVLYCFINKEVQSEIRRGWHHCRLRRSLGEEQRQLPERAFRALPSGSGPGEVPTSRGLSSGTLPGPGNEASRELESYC

GLP-1 receptor [2] = biological target: T2, GLP-1 receptor (Homo sapiens, UniProt P43220); test: HitHunter cAMP assay, GLP-1 receptor; conditions: for Emax: read-out: Emax GLP-1R
T2 sequence (P43220 24-463): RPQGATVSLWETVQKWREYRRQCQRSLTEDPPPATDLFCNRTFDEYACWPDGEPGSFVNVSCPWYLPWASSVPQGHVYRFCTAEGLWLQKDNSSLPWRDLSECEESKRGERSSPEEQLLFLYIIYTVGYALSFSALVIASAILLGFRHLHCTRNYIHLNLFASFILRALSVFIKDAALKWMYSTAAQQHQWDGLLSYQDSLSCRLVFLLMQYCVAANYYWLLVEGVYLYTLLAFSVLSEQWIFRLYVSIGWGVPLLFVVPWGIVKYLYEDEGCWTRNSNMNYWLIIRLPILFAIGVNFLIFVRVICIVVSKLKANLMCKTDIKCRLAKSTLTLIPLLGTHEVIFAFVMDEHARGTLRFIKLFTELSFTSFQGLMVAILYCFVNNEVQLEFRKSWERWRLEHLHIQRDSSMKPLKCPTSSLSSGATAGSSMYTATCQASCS
Protocol: CAMP accumulation was measured in Chinese hamster ovary (CHO) cells stably expressing the human GLP-1 receptor or GIP receptor using the HitHunter CAMP Assay for Small Molecules Kit (Eurofins). Briefly, cells were grown in Ham's F12 Nutrient Mix with 10% FBS and lifted with Cell dissociation buffer, Enzyme free, PBS based (ThermoFisher). Cells were pelleted and resuspended in Hank's buffered saline solution with 10 mM Hepes and 625 μM 3-isobutyl-1-methylxanthine. The antibody reagent was then added to cells at a 1:2 ratio and 5 μL of mixture was seeded in 384-well small volume white assay plates, at 10,000 cells/well. Cells were then treated with 50 nl compound in DMSO using an ECHO 550 acoustic dispenser (Labcyte) in a 20-point dose response format in triplicate for 30 min. Cells were the lysed and detection reagents added according to the manufacturer's protocol. After overnight incubation, luminescence was measured using a Perkin Elmer Envision plate reader. Raw data was normalized to the maximum signal from GLP-1 or GIP (high) and DMSO (low). Dose response curves were analyzed using GraphPad Prism 9.0.

GIP receptor [3] = biological target: T1, GIP receptor; test: HitHunter cAMP assay, GIP receptor; conditions: for Emax: read-out: Emax GIP-1R
GLP-1 receptor [4] = biological target: T2, GLP-1 receptor; test: PathHunter β-arrestin assay, GLP-1 receptor; set-up: host or cells: PathHunter CHO-K1 GLP1R β-Arrestin Cell Line
[5] = β-arrestin-2 recruitment, PathHunter CHO-K1 GIPR β-Arrestin Cell Line, 90 min at 37° C., normalized to GIP, read-out: GIPR β Arrestin EC50
[6] = CHO cells stably expressing human GLP-1 receptor, cAMP accumulation, 30 min, read-out: EC50 GLP-1R
[7] = CHO cells, cAMP, normalized to maximum signal from GLP-1 (high) and DMSO (low)
[8] = CHO cells stably expressing GIP receptor, cAMP accumulation, 30 min, read-out: EC50 GIP-1R
[9] = CHO cells, cAMP, normalized to maximum signal from GIP (high) and DMSO (low)
[10] = β-arrestin-2 recruitment, PathHunter CHO-K1 GLP1R β-Arrestin Cell Line, 90 min at 37° C., normalized to GLP-1, read-out: GLP-1R β Arrestin EC50

SMILES	EC50 (GIP receptor [1]; [5]) [nM]	EC50 (GLP-1 receptor [2]; [6]) [nM]	Emax (GLP-1 receptor [2]; [7]) [%]	EC50 (GIP receptor [3]; [8]) [nM]	Emax (GIP receptor [3]; [9]) [%]	EC50 (GLP-1 receptor [4]; [10]) [nM]	EC50 (GIP receptor [1]) [nM]	EC50 (GLP-1 receptor [2]) [nM]	Emax (GLP-1 receptor [2]; CHO) [%]	EC50 (GIP receptor [3]) [nM]	Emax (GIP receptor [3]; CHO) [%]	EC50 (GLP-1 receptor [4]) [nM]
CC[C@H](C)[C@H](NC(=O)[C@H](CC(C)C)NC(=O)[C@H](Cc1c[nH]c2ccccc12)NC(=O)[C@H](CCC(N)=O)NC(=O)[C@@H](NC(=O)[C@H](Cc1ccccc1)NC(=O)[C@H](C)NC(=O)[C@H](CCCCNC(=O)COCCOCCNC(=O)COCCOCCNC(=O)CC[C@H](NC(=O)CCCCCCCCCCCCCCCCCCC(=O)O)C(=O)O)NC(=O)[C@H](CCC(N)=O)NC(=O)[C@H](C)NC(=O)[C@@H](NC(=O)[C@H](CCCCN)NC(=O)[C@H](CC(=O)O)NC(=O)[C@H](CC(C)C)NC(=O)C(C)(C)NC(=O)[C@@H](NC(=O)[C@H](CO)NC(=O)[C@H](Cc1ccc(O)cc1)NC(=O)[C@H](CC(=O)O)NC(=O)[C@H](CO)NC(=O)[C@@H](NC(=O)[C@H](Cc1ccccc1)NC(=O)[C@@H](NC(=O)CNC(=O)[C@H](CCC(=O)O)NC(=O)C(CNC(=O)C(C)(C)c1cc(F)cc(C#N)c1)C(F)(F)F)[C@@H](C)O)[C@@H](C)O)[C@@H](C)CC)[C@@H](C)CC)C(C)C)C(=O)N[C@@H](C)C(=O)NCC(=O)NCC(=O)N1CCC[C@H]1C(=O)N[C@@H](CO)C(=O)N[C@@H](CO)C(=O)NCC(=O)N[C@@H](C)C(=O)N1CCC[C@H]1C(=O)N1CCC[C@H]1C(=O)N1CCC[C@H]1C(=O)N[C@@H](CO)C(N)=O (stereo partly drawn) [Compound 165] ({Isobutyryl(2-(3-CN-5-F-Ph))}-[X21]EGTFTSDYSI[Aib]LDKIAQK([AEEA-AEEA-γGlu-C20 diacid])AFVQWLIAGGPSSGAPPPS-NH2)	> 1000	10 to 100	111	100 to 1000	92	> 1000	–	–	–	–	–	–
CC[C@H](C)[C@H](NC(=O)[C@H](CC(C)C)NC(=O)[C@H](Cc1c[nH]c2ccccc12)NC(=O)[C@H](CCC(N)=O)NC(=O)[C@@H](NC(=O)[C@H](Cc1ccccc1)NC(=O)[C@H](C)NC(=O)[C@H](CCCCNC(=O)COCCOCCNC(=O)COCCOCCNC(=O)CC[C@H](NC(=O)CCCCCCCCCCCCCCCCCCC(=O)O)C(=O)O)NC(=O)[C@H](CCC(N)=O)NC(=O)[C@H](C)NC(=O)[C@@H](NC(=O)[C@H](CCCCN)NC(=O)[C@H](CC(=O)O)NC(=O)[C@H](CC(C)C)NC(=O)C(C)(C)NC(=O)[C@@H](NC(=O)[C@H](CO)NC(=O)[C@H](Cc1ccc(O)cc1)NC(=O)[C@H](CC(=O)O)NC(=O)[C@H](CO)NC(=O)[C@@H](NC(=O)[C@H](Cc1ccccc1)NC(=O)[C@@H](NC(=O)CNC(=O)[C@H](CCC(=O)O)NC(=O)CCNC(=O)C(C)(C)n1cc(N)cn1)[C@@H](C)O)[C@@H](C)O)[C@@H](C)CC)[C@@H](C)CC)C(C)C)C(=O)N[C@@H](C)C(=O)NCC(=O)NCC(=O)N1CCC[C@H]1C(=O)N[C@@H](CO)C(=O)N[C@@H](CO)C(=O)NCC(=O)N[C@@H](C)C(=O)N1CCC[C@H]1C(=O)N1CCC[C@H]1C(=O)N1CCC[C@H]1C(=O)N[C@@H](CO)C(N)=O [Compound 157] ({X82-βAla}-EGTFTSDYSI[Aib]LDKIAQK([AEEA-AEEA-γGlu-C20 diacid])AFVQWLIAGGPSSGAPPPS-NH2)	> 1000	0.1 to 1	100	10 to 100	106	> 1000	–	–	–	–	–	–
CC[C@H](C)[C@H](NC(=O)[C@H](CC(C)C)NC(=O)[C@H](Cc1c[nH]c2ccccc12)NC(=O)[C@H](CCC(N)=O)NC(=O)[C@@H](NC(=O)[C@H](Cc1ccccc1)NC(=O)[C@H](C)NC(=O)[C@H](CCCCNC(=O)COCCOCCNC(=O)COCCOCCNC(=O)CC[C@H](NC(=O)CCCCCCCCCCCCCCCCCCC(=O)O)C(=O)O)NC(=O)[C@H](CCC(N)=O)NC(=O)[C@H](C)NC(=O)[C@@H](NC(=O)[C@H](CCCCN)NC(=O)[C@H](CC(=O)O)NC(=O)[C@H](CC(C)C)NC(=O)C(C)(C)NC(=O)[C@@H](NC(=O)[C@H](CO)NC(=O)[C@H](Cc1ccc(O)cc1)NC(=O)[C@H](CC(=O)O)NC(=O)[C@H](CO)NC(=O)[C@@H](NC(=O)[C@H](Cc1ccccc1)NC(=O)[C@@H](NC(=O)CNC(=O)[C@H](CCC(=O)O)NC(=O)CCCNC(=O)CNC(=O)Nc1ccc(Cl)cc1)[C@@H](C)O)[C@@H](C)O)[C@@H](C)CC)[C@@H](C)CC)C(C)C)C(=O)N[C@@H](C)C(=O)NCC(=O)NCC(=O)N1CCC[C@H]1C(=O)N[C@@H](CO)C(=O)N[C@@H](CO)C(=O)NCC(=O)N[C@@H](C)C(=O)N1CCC[C@H]1C(=O)N1CCC[C@H]1C(=O)N1CCC[C@H]1C(=O)N[C@@H](CO)C(N)=O [Compound 270] ({NH(4-Cl-phenyl)-CO}-G[GABA]EGTFTSDYSI[Aib]LDKIAQK([AEEA-AEEA-γGlu-C20 diacid])AFVQWLIAGGPSSGAPPPS-NH2)	–	–	–	–	–	–	< 1000	10 to 100	91	1 to 10	104	> 1000
CC[C@H](C)[C@H](NC(=O)[C@H](CO)NC(=O)[C@H](Cc1ccc(O)cc1)NC(=O)[C@H](CC(=O)O)NC(=O)[C@H](CO)NC(=O)[C@@H](NC(=O)[C@H](Cc1ccccc1)NC(=O)[C@@H](NC(=O)CNC(=O)[C@H](CCC(=O)O)NC(=O)CCNC(=O)[C@]1(c2ccccc2)CNC(=O)C1)[C@@H](C)O)[C@@H](C)O)C(=O)N[C@@H](Cc1ccc(O)cc1)C(=O)N[C@@H](CC(C)C)C(=O)N[C@@H](CC(=O)O)C(=O)N[C@@H](CCCCN)C(=O)N[C@@H](CCCCNC(=O)COCCOCCNC(=O)COCCOCCNC(=O)CC[C@H](NC(=O)CCCCCCCCCCCCCCCCCCC(=O)O)C(=O)O)C(=O)N[C@@H](C)C(=O)N[C@@H](C)C(=O)NC(C)(C)C(=O)N[C@@H](CCC(=O)O)C(=O)N[C@@H](Cc1ccccc1)C(=O)N[C@H](C(=O)N[C@@H](CC(N)=O)C(=O)N[C@@H](Cc1c[nH]c2ccccc12)C(=O)N[C@@H](CC(C)C)C(=O)N[C@@H](CC(C)C)C(=O)N[C@@H](C)C(=O)NCC(=O)NCC(=O)N1CCC[C@H]1C(=O)N[C@@H](CO)C(=O)N[C@@H](CO)C(=O)NCC(=O)N[C@@H](C)C(=O)N1CCC[C@H]1C(=O)N1CCC[C@H]1C(=O)N1CCC[C@H]1C(=O)N[C@@H](CO)C(N)=O)C(C)C (single isomer, unassigned) [Compound 113]	> 1000	0.1 to 1	112	1 to 10	98	> 1000	–	–	–	–	–	–
CC[C@H](C)[C@H](NC(=O)[C@H](CC(C)C)NC(=O)[C@H](Cc1c[nH]c2ccccc12)NC(=O)[C@H](CCC(N)=O)NC(=O)[C@@H](NC(=O)[C@H](Cc1ccccc1)NC(=O)[C@H](C)NC(=O)[C@H](CCCCNC(=O)COCCOCCNC(=O)COCCOCCNC(=O)CC[C@H](NC(=O)CCCCCCCCCCCCCCCCCCC(=O)O)C(=O)O)NC(=O)[C@H](CCC(N)=O)NC(=O)[C@H](C)NC(=O)[C@@H](NC(=O)[C@H](CCCCN)NC(=O)[C@H](CC(=O)O)NC(=O)[C@H](CC(C)C)NC(=O)C(C)(C)NC(=O)[C@@H](NC(=O)[C@H](CO)NC(=O)[C@H](Cc1ccc(O)cc1)NC(=O)[C@H](CC(=O)O)NC(=O)[C@H](CO)NC(=O)[C@@H](NC(=O)[C@H](Cc1ccccc1)NC(=O)[C@@H](NC(=O)CNC(=O)[C@H](CCC(=O)O)NC(=O)CCNC(=O)C(C)(C)n1cc(C)c(C(F)(F)F)n1)[C@@H](C)O)[C@@H](C)O)[C@@H](C)CC)[C@@H](C)CC)C(C)C)C(=O)N[C@@H](C)C(=O)NCC(=O)NCC(=O)N1CCC[C@H]1C(=O)N[C@@H](CO)C(=O)N[C@@H](CO)C(=O)NCC(=O)N[C@@H](C)C(=O)N1CCC[C@H]1C(=O)N1CCC[C@H]1C(=O)N1CCC[C@H]1C(=O)N[C@@H](CO)C(N)=O [Compound 158] ({X54-βAla}-EGTFTSDYSI[Aib]LDKIAQK([AEEA-AEEA-γGlu-C20 diacid])AFVQWLIAGGPSSGAPPPS-NH2)	> 1000	0.1 to 1	97	10 to 100	118	> 1000	–	–	–	–	–	–
